Data reported in US11021481B2, “Substituted isoindolin-1-ones and 2,3-dihydro-1h-pyrrolo[3,4-c]pyridin-1-ones as HPK1 antagonists” (Nimbus Saturn, Inc., priority 2019, dated 2021).

Each molecule was assayed against HPK1 (Homo sapiens (Human), UniProt Q92918) (assay: HPK1 biochemical enzyme assay (microfluidic mobility shift assay)). Details: 1.5 nM HPK1, ATP 1 mM final, 30 min preincubation, 60 min at RT, Caliper EZ Reader; read-out: HPK1 1000UMATP caliper IC50.
Chain of HPK1 (Q92918 whole entry): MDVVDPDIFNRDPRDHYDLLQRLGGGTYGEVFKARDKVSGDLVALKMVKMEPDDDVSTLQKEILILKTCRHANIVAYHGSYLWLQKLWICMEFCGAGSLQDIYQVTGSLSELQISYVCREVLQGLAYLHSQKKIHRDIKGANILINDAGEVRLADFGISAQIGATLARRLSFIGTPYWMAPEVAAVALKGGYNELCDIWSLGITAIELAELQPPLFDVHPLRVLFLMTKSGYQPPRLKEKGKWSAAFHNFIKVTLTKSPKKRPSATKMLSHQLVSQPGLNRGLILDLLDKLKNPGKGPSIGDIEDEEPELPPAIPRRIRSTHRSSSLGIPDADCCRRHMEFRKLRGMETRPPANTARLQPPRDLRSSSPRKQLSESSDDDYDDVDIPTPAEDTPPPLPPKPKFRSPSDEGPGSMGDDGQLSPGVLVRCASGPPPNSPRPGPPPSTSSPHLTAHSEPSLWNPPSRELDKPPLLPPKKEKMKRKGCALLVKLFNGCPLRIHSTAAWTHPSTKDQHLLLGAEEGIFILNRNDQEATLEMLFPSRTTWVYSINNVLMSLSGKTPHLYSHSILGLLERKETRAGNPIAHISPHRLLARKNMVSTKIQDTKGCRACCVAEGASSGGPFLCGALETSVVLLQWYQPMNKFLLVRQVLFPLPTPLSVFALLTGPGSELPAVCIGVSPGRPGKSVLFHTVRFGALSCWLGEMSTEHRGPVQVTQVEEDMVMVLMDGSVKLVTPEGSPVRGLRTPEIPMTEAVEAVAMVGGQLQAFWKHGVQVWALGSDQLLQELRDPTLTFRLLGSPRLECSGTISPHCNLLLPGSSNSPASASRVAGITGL
How it was run: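 Ten-point compound titrations (top 3 μM final) preincubated 30 min with HPK1 and substrate, then reaction started with 1 mM ATP and 1 μM substrate, 5 mM MgCl2. After 60 min at RT, reaction terminated and product measured by microfluidic mobility shift.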
For O=C1NCc2c(-c3cnc4cc(F)ccn34)ccc(Nc3ccc(N4CCC(C(=O)O)CC4)cn3)c21 [I-203, l-[6-[[7-(7-fluoroimidazo [1,2-a]pyridin-3-yl)-3-oxo-isoindolin-4-yl]amino]-3-pyridyl]piper-idine-4-carboxylic acid], the IC50 was less than 100 nM. Molecule “(S)-7-((6- ((dimethylamino)- methyl)-5- (tetrahydrofuran- 3-yl)pyridin- 2-yl)amino)-4- (1-methyl-1H- indol-4-yl)- 2,3-dihydro- 1H-pyrrolo[3,4- c]pyridin-1-one [I-540]” has an IC50 of less than 100 nM. With Cn1ccc2c(-c3ncc(Nc4cncc(N5CC[C@H]6CNC[C@H]65)n4)c4c3CNC4=O)ccnc21 (single isomer, unassigned) [I-660] the IC50 was less than 100 nM. Molecule C[C@@H](c1nc(Nc2ccc(-c3cnc4cc(F)ccn34)c3c2C(=O)NC3)ccc1[C@H]1CCOC1)N(C)C (single isomer, unassigned) [I-822] has an IC50 of less than 100 nM. O=C1NCc2c(-c3cnc4cc(Cl)ccn34)ccc(Nc3ccc(N4CCOCC(O)C4)cn3)c21 (stereo in doubt) [I-595, (S)-4-(7-chloroimidazo [1,2-a]pyridin-3-yl)-7-((5-(6-hydroxy-1.4-oxazepan-4-yl)pyridin-2-yl)amino)isoin-dolin-1-one] gave an IC50 of less than 100 nM. Work on CN(C)C(C)(C)[C@@H]1CN(c2ccc(Nc3ccc(-c4cnc5cnccn45)c4c3C(=O)NC4)nc2)CCO1 [I-617, (S)-7-((5-(2-(2-(dimethylami-no)propan-2-yl)morpho-lino)pyridin-2-yl)amino)-4-(imidazo[1,2-a]pyrazin-3-yl)isoindolin-1-one] yielded an IC50 of less than 100 nM. With CC(C)(O)[C@H]1CN(c2ccc(Nc3cnc(-c4cnc5c(F)cccn45)c4c3C(=O)NC4)nc2)CCO1 [I-458, 4-(8-fluoroimidazo [1,2-a]pyridin-3-yl)-7-[[5-[(2R)-2-(1-hydroxy-1-methyl-ethyl)morpholin-4-yl]-2-pyridyl]amino]-2,3-dihydropyrrolo [3,4-c]pyridin-l-one] the IC50 was less than 100 nM. In the case of O=C1NCc2c(-c3cnc4cc(F)ccn34)ccc(Nc3ccc(N4CCC(O)(CN5CCCC5)CC4)cn3)c21 [I-387], the IC50 is reported as less than 100 nM. Cc1cccc2c(-c3ncc(Nc4ccc(N5CCN(C)CC5)cn4)c4c3CNC4=O)c[nH]c12 [I-5, 4-(7-methyl-1H-indol-3-yl)-7-[[5-(4-methylpiperazin-1-yl)-2-pyridyl]amino]-2,3-dihydropyrrolo [3,4-c]pyridin-1-one] gave an IC50 of 100 to 1000 nM. Work on CN1CCN(c2ccc(Nc3ccc(-c4cccc5nccn45)c4c3C(=O)NC4)nc2)CC1 [I-25, 4-imidazo[1,2-a]pyridin-5-yl-7-[[5-(4-methylpiperazin-1-yl)-2-pyridyl]amino] isoindolin-1-one] yielded an IC50 of 100 to 1000 nM. With CN1CCN(c2ccc(Nc3ccc(-c4ccnc5c4ccn5CC(N)=O)c4c3C(=O)NC4)nc2)CC1 [I-269, 2-(4-(7-((5-(4-methylpiperazin-1-yl)pyridin-2-yl)amino)-1-oxoisoindolin-4-yl)-lH-pyrrolo[2.3-b]pyridin-1-yl)acctamide] the IC50 was less than 100 nM. For C[C@@H](c1ccc(Nc2ccc(-c3cnc4cc(F)ccn34)c3c2C(=O)NC3)nc1)N1CCC(O)CC1 [I-526, (S)-4-(7-fluoroimidazo [1,2-a]pyridin-3-yl)-7-((5-(l-(4-hydroxypiperidin-1-yl)ethyl)pyridin-2-yl)amino)isoin-dolin-1-one], the IC50 was less than 100 nM. Molecule O=C1NCc2c(-c3cnc4cc(F)ccn34)ccc(Nc3ccc(N4CCC[C@@](O)(CN5CCOCC5)C4)cn3)c21 [I-656, (R)-4-(7-fluoroimidazo [1,2-a]pyridin-3-yl)-7-((5-(3-hydroxy-3-(morpholinomethyl)piperidin-1-yl)pyridin-2-yl)amino)isoin-dolin-1-one] has an IC50 of less than 100 nM. CCc1[nH]c2ccccc2c1-c1ccc(Nc2ccc(N3CCN(C)CC3)cn2)c2c1CNC2=O [I-34, 4-(2-ethyl-1H-indol-3-yl)-7-[[5-(4-methylpiperazin-1-yl)-2-pyridyl]amino] isoindolin-1-one] showed an IC50 of less than 100 nM. C[C@@H](c1ccc(Nc2ccc(-c3cnc4cc(F)ccn34)c3c2C(=O)NC3)nc1)N1CCC[C@H](O)C1 (stereo in doubt) [I-513, 4-(7-f1uoroimidazo [1,2-a]pyridin-3-yl)-7-((5-((S)-1-((S)-3-hydroxypiperidin-1-yl)ethyl)pyridin-2-yl)amino)isoin-dolin-1-one] was tested, and the IC50 was less than 100 nM. CN(C)Cc1nc(Nc2ccc(-c3cnc4cc(F)ccn34)c3c2C(=O)NC3)ccc1N1CCC[C@H](C(C)(C)O)C1 [I-746, (S)-7-((6-((dimethylamino)-methyl)-5-(3-(2-hydroxypropan-2-yl)piperidin-1-yl)pyridin-2-yl)amino)-4-(7-fluoroimidazo [1,2-a]pyridin-3-yl)isoindolin-1-one] was tested, and the IC50 was less than 100 nM. In the case of Cc1ccc2c(-c3ccc(Nc4ccc(N5CCNCC5)cn4)c4c3CNC4=O)cnn2c1 [I-89, 4-(6-methylpyrazolo[1,5-a]pyridin-3-yl)-7-[(5-piperazin-1-yl-2-pyridyl)amino] isoindolin-1-one], the IC50 is reported as less than 100 nM. Work on COCCN(C)Cc1nc(Nc2ccc(-c3cnc4cc(F)ccn34)c3c2C(=O)NC3)ccc1C1CCOC1 (stereo in doubt) [I-728, (S)-4-(7-fluoroimidazo [1,2-a]pyridin-3-yl)-7-(6-(((2-methoxyethyl) (methyl)-amino)methyl)-5-(tetrahydrofuran-3-yl)pyridin-2-yl)amino)isoin-dolin-1-one] yielded an IC50 of less than 100 nM. Molecule O=C1NCc2c(-c3cnc4cc(F)ccn34)ccc(Nc3ccc(C4CCOC4)c(CN4CCCC4)n3)c21 (centres unmarked) [I-505, 4-(7-fluoroimidazo [1,2-a]pyridin-3-yl)-7-[[6-(pyrrolidin-1-ylmethyl)-5-tetrahydrofuran-3-yl-2-pyridyl]amino]isoindolin-1-one] has an IC50 of less than 100 nM. With CN(C)Cc1nc(Nc2ccc(-c3cnc4cc(F)ccn34)c3c2C(=O)NC3)ccc1N1CC[C@@H](F)[C@H](O)C1 [I-700, 7-((6-((dimethylamino)-methyl)-5-((3R,4R]-4-fluoro-3-hydroxypiperidin-1-yl)pyridin-2-yl)amino)-4-(7-fluoroimidazo [1,2-a]pyridin-3-yl)isoindolin-1-one] the IC50 was less than 100 nM. CN1CCOC2(CCCN(c3ccc(Nc4ccc(-c5cnc6cc(F)ccn56)c5c4C(=O)NC5)nc3)C2)C1 (centres unmarked) [I-496, 4-(7-fluoroimidazo [1,2-a]pyridin-3-yl)-7-[[5-(4-methyl-1-oxa-4,8-diazaspiro[5.5]undecan-8-yl)-2-pyridyl]amino) isoindolin-1-one] showed an IC50 of less than 100 nM. For O=C1NCc2c(-c3cnc4ccccn34)ccc(Nc3ccc(N4CC5CCC(C4)N5)cn3)c21 [I-101, 7-[[5-(3,8-diazabicyclo [3,2.1]octan-3-yl)-2-pyridyl]amino]-4-imidazo[1,2-a]pyridin-3-yl-isoindolin-1-one], the IC50 was less than 100 nM. For Cc1ccn2c(-c3ccc(Nc4ccc(N5CCOC(CN(C)C)C5)cn4)c4c3CNC4=O)cnc2c1F (stereo in doubt) [I-613, (S)-7-((5-(2-((dimethylamino)-methyl)mor-pholino)pyridin-2-yl)amino)-4-(8-fluoro-7-methylimidazo [1,2-a]pyridin-3-yl)isoindolin-1-one], the IC50 was less than 100 nM. Molecule CN1C[C@@H](c2ccc(Nc3ccc(-c4cnc5cnccn45)c4c3C(=O)NC4)nc2)CCC1=O [I-325, (R)-4-(imidazo[1,2-a]pyrazin-3-yl)-7-((5-(1-methyl-6-oxopiperidin-3-yl)pyridin-2-yl)amino)isoin-dolin-1-one] has an IC50 of less than 100 nM. O=C1NCc2c(-c3c[nH]c4ccccc34)ncc(Nc3ccc(N4CC5CCC(C4)O5)cn3)c21 [I-10, 4-(1H-indol-3-yl)-7-[[5-(8-oxa-3-azabicyclo [3.2.1]octan-3-yl)-2-pyridyl]amino]-2,3-dihydropyrrolo [3,4-c]pyridin-1-one] showed an IC50 greater than 1000 nM. Work on CN(Cc1nc(Nc2ccc(-c3cnc4cc(F)ccn34)c3c2C(=O)NC3)ccc1C1CCOC1)CC(F)(F)F (stereo in doubt) [I-754, (S)-4-(7-fluoroimidazo [1,2-a]pyridin-3-yl)-7-((6-((methyl(2,2.2-trifluoroethyl)amino)methyl)-5-(tetrahydrofuran-3-yl)pyridin-2-yl)amino)isoin-dolin-1-one] yielded an IC50 of less than 100 nM. For Cn1cnc2c(-c3ccc(Nc4ccc(N5CCC(O)CC5)cn4)c4c3CNC4=O)ccnc21 [I-152, 7-[[5-(4-hydroxy-1-piperidyl)-2-pyridyl]amino]-4-(3-methylimidazo [4,5-b]pyridin-7-yl)isoindolin-1-one], the IC50 was less than 100 nM. In the case of O=C1NCc2c(-c3cnc4cc(F)ccn34)ccc(Nc3ccc(N4CCC[C@H](O)C4)cn3)c21 [I-175, 4-(7-fluoroimidazo [1,2-a]pyridin-3-yl)-7-[[5-[(3S)-3-hydroxy-1-piperidyl]-2-pyridyl]amino] isoindolin-1-one], the IC50 is reported as less than 100 nM. CN1CCN(c2ccc(Nc3ccc(-c4ccn5ncccc45)c4c3C(=O)NC4)nc2)CC1 [I-256, 7-((5-(4-methylpiperazin-1-yl)pyridin-2-yl)amino)-4-(pyrrolo[1,2-b]pyridazin-5-yl)isoindolin-1-one] was tested, and the IC50 was less than 100 nM. COC[C@@]1(O)CCCN(c2ccc(Nc3ccc(-c4cnc5cc(F)ccn45)c4c3C(=O)NC4)nc2)C1 [I-394, (R)-4-(7-fluoroimidazo [1,2-a]pyridin-3-yl)-7-((5-(3-hydroxy-3-(methoxymeth-yl)piperidin-1-yl)pyridin-2-yl)amino)isoin-dolin-1-one] showed an IC50 of less than 100 nM. Cn1ccc2c(-c3ncc(Nc4cccc(N5CC[C@H](N6CCCC6)C5)n4)c4c3CNC4=O)ccnc21 [I-443, (S)-7-((6-([1,3-bipynolidin]-1′-yl)pyridin-2-yl)amino)-4-(1-methyl-1H-pyrrolo[2,3-b]pyridin-4-yl)-2,3-dihydro-1H-pyrrolo[3,4-c]pyridin-1-one] was tested, and the IC50 was less than 100 nM. In the case of C[C@@H](c1ccc(Nc2ccc(-c3cnc4cc(F)ccn34)c3c2C(=O)NC3)nc1)N(C)C [I-520, (S)-7-((5-(1-(dimethylami-no)ethyl)pyridin-2-yl)amino)-4-(7-fluoroimidazo [1,2-a]pyridin-3-yl)isoindolin-1-one], the IC50 is reported as less than 100 nM.
